In patent US6673814B2, “Delivery systems and methods for noscapine and noscapine derivatives, useful as anticancer agents” (Emory University, priority 1997, dated 2004):

How the values were obtained:
HL-60 cells = assay: Apoptosis of HL-60 cells, DAPI staining of nuclear chromatin; format: cell-based; conditions: for Apoptic Cell Percentage: 24 hours
Protocol: Morphological changes in the nuclear chromatin of HL-60 cells undergoing apoptosis were detected by staining with 4′, 6-diamidino-2-phenylindole (DAPI). In brief, 0.5×10^6 to 3×10^6 cells were fixed with 4% glutaraledehyde, 0.2% Triton x-100, in PBS and incubated at room temperature for 10 min., then centrifuged at 1000×9 for 10 min., resuspended in 20 μ1 0.1% DAPI ethanol. Following 15 min. incubation at room temperature, at 10 μl aliquot was placed on a glass slide, and 400 cells per slide were scored for the incidence of apoptotic chromatin changes with a fluorescence microscope.

E.G7-OVA cells = assay: Inhibition of tumor growth, E.G7-OVA tumors in C57BL/6 mice; format: in vivo; conditions: 3 mg noscapine every day for three weeks, intraperitoneally or intragastric; vs saline
Protocol: C57BL/6 mice were injected subcutaneously in the right flank with 2×10^6 E.G7-OVA cells. Three days later, mice were injected intraperitoneally, every day for three weeks, either with 200 μl saline (n=10), or with 3 mg noscapine dissolved in 200 μl saline (n=10),. Third group of mice (n=10) was fed 3 mg noscapine via intragastric (i.g.) intubation using a 1 ml syringe fitted with a 20 gauge stainless steel ball point needle. After three weeks, all mice were sacrificed by cervical dislocation. Tumors were removed and weighted. Tumor weights were individually plotted and comparisons between control and treatment groups were analyzed by the Student's test.

solid lymphoid tumors = assay: Apoptosis in solid lymphoid tumors induced in mice, Haemotoxline and Eosine staining; format: in vivo; conditions: noscapine treated mice, microscopic examination
bovine brain tubulin [1] = assay: Microtubule assembly, turbidity at 350 nm; format: biochemical; conditions: 20 μM noscapine, 37° C., G-PEM buffer
Protocol: (§1) Phosphocellulose purified bovine brain tubulin was employed throughout these biophysical experiments. Fluorescence titration for determining binding constants was performed according to Peyrot, V. et al., Biochemistry 31, 11125 (1992). In brief; at room temperature, 2 μM tubulin in 100 mM PIPES, 2 mM EGTA, 1 mM MgCl2 was excited at 278 nm, and the fluorescence emission spectra were recorded with bandwidths 2 nm. […] The concentration of noscapine was raised in increments of 0.5 μM, until the decrease in the fluorescence intensity was saturated. The value of the dissociation constant and the number of sites were obtained from Scatchard plots using the equation, […], where r is the ratio of the concentration of bound ligand to the total protein concentration and n is the number of binding sites. Circular dichroism (CD) spectra measurements were performed in a spectroscometer, in cells (0.1 cm path) at 25° C. Microtubule assembly was recorded on a spectrophotometer with thermocontroler. The cuvettes (0.4 cm path) containing 100 mM PIPES, 2 mM EGTA, 1 mM MgCl2 and 1 mM GTP (G-PEM buffer), and 20 μM noscapine/DMSO were kept at room temperature before addition of tubulin and shifting to 37° C. […] The assembly was monitored by measuring the changes in turbidity at 0.5 min. intervals. Noscapine was dissolved in DMSO at 0.8 mM and stocked at 4° C. […]

[2] = system: tumors derived from malignant melanoma cells; assay: Melanoma tumor progression in animals; format: in vivo
thymocyte cells = assay: M phase arrest, alpha-tubulin immunofluorescence and flow cytometry, thymocyte cells; format: cell-based; conditions: 20 μM noscapine, 24 hr
Protocol: (§2) Hela cells were grown in DMEM supplemented with 10% fetal calf serum, 1 mM L-glutamine and 1% penicillin/streptomycin. The tumor cell line E-G7-OV A […] [Moore, M. W., et al., Cell. 54, 777 (1988)] was grown in RPM1 1640 with 10% fetal calf serum, 1% sodium pyruvate, 1 mM L-glutamine, 0.1% gentamycin, 50 μtM β-mercaptoethanol. Cells were grown at 37° C. in a 5% CO2 atmosphere. Cell viability was assessed by trypan blue exclusion analysis. Cell numbers were determined using a hemacytometer, C57BL/6 […] mice, 8 to 12 weeks of age, were obtained from Harian Sprague Dawley, Inc. (Indiananapolis, Ind.). Mice were maintained on standard laboratory chow and water ad libitum, in a temperature and light controlled environment. For immunofluorescence, both Hela and thymocyte cells were treated identically except the Hela cells were grown onto glass coverslips while EL4 thymocytes were put on glass coverslips after fixation. […]
(§3) Then cells were washed with 1% BSA-PBS solution for 10 min. at room temperature before incubating with a 1:200 dilution of a rhodamine labeled goat anti-mouse IgG antibody at room temperature for 45 min., then the coverslips were rinsed by 1% BSA/PBS solution for 10 min. and labeled by DAPI (4′, 6-diamino-2-phenyliudole) for another 10 min. at room temperature. […] Cells were examined with a fluorescence microscope. […] The samples were read on a cytometer.

Hela cells = assay: M phase arrest, alpha-tubulin immunofluorescence and flow cytometry, Hela cells; format: cell-based; conditions: 20 μM noscapine, 24 hr
Protocol: as §2, §3

lymphocyte cells = assay: Apoptosis initiation: oligonucleosomal DNA fragmentation, DAPI staining, nick end labeling; format: cell-based; conditions: noscapine treatment 0 to 24 hr
Protocol: Oligonucleosomal fragmentation of genomic DNA was determined according to Walton, M. I. et. al., Cancer. Res. 53, 1853 (1993). An aliquot of 3.3×10^6 cells in 10 ml medium was incubated with […] for different time periods ranging from 0 to 24 hr. At the end of incubation, cells were pelleted and washed twice with ice-cold PBS, and lysed in 250 μl 1% (v/v) NP-40 detergent containing 0.5 mg/ml proteinase K in PBS solution on ice for 60 min. Samples were centrifuged, and the supernatants were removed and incubated with 5 μl 10 mg/ml Rnase A at 37° C. for 40 min. An aliquot of 1 ml anhydrous ethanol was added, tubes were placed at −20° C. for 20 min., then centrifuged to pellet DNA. […]
Morphological changes in the nuclear chromatin of cells undergoing apoptosis were detected by staining with 4′, 6-diamidino-2-phenylindole (DAPI). […] Following 15 min. incubation at room temperature, a 10 μl aliquot was placed on a glass slide, and 400 cells per slide were scored for the incidence of apoptotic chromatin changes with a fluorescence microscope. […]
After the slides were rinsed with PBS, 50 μl converter-POD solution was added on samples and incubated for 30 min. at 37° C. […] After the slides were rinsed with PBS for another 3 times, coverslips were mounted and analyzed with a light microscope.

bovine brain tubulin [3] = assay: Tubulin binding by fluorescence titration, Scatchard plot
Protocol: as §1

Row | Compound | initiation of apoptosis (HL-60 cells) | Apoptic Cell Percentage (HL-60 cells; 20 μM in DMSO, first trial) | Apoptic Cell Percentage (HL-60 cells; 20 μM in DMSO, second trial) | Apoptic Cell Percentage (HL-60 cells; 50 μM in DMSO) | tumor weight (E.G7-OVA cells) | apoptotic morphologies of tumor cells (solid lymphoid tumors) | tubulin assembly (absorbance at 350 nm) (bovine brain tubulin [1]) | reduction of tumor volume compared to untreated animals [2] | M phase arrest of microtubule arrays (thymocyte cells) | M phase arrest of microtubule arrays (Hela cells) | DNA degradation (gel electrophoresis of fragmented genomic DNA, staining of treated cells) (lymphocyte cells) | Kd (bovine brain tubulin [3]; 2 μM tubulin, room temperature, Scatchard plot, read-out: apparent dissociation constant (Kd)) | fluorescence quenching of tubulin (bovine brain tubulin [3]; excitation 278 nm)
1 | 1,3-dihydro-4,5-dimethoxy-1-[1-(8-methoxy-2-methyl-6,7-methylenedioxy-1,2,3,4-tetrahydroisoquinolinyl)] isobenzofuran-BH3 [Compound 3] | initiate apoptosis | 37% | 28% | 39% | – | – | – | – | – | – | – | – | –
2 | COc1ccc2c(c1OC)CO[C@@H]2[C@H]1c2c(cc3c(c2OC)OCO3)CCN1C [Compound 4, 1,3-diliydro-4,5-dimethoxy-1-[1-(8-methoxy-2-methyl-6,7-methylenedioxy 1,2,3,4-tetrahydroixoquinolinyl)]isobenzofuran] | initiate apoptosis | 48% | 32% | 52% | – | – | – | – | – | – | – | – | –
3 | COc1ccc2c(c1OC)C(=O)O[C@@H]2[C@H]1c2c(cc3c(c2OC)OCO3)CCN1C [Noscapine] | initiate apoptosis | 30% | 17% | 27% | significantly reduced tumor weight | many cells in noscapine treated mice with apoptotic morphologies | promotes tubulin assembly | ~83% | microtubule arrays are arrested in M phase | microtubule arrays are arrested in M phase | progressive DNA degradation with increasing time | 1.86 µM | affords fluorescence quenching of tubulin
